The values below come from article PMC3762062, “Cloning, overexpression and biocatalytic exploration of a novel Baeyer-Villiger monooxygenase from Aspergillus fumigatus Af293” (AMB Express, 2013).

Where two headings read alike, the source gives them in different places. Bounds are passed on as bounds.

In data set [1] the target is T1, BVMOAf1 (PTDH-BVMOAf1) (Aspergillus fumigatus, UniProt Q4WAZ0).
T1 construct: gene psoF; Truncated N-terminal BVMO domain (1614 bp, 367 C-terminal residues of the 905 deleted); pCRE2 vector, E. coli TOP10; fusion kept; natural Gln in place of His in the BVMO motif (H173Q)
Kind of data set: NADPH consumption at […] nm. In kind it is biochemical. Particulars: air-saturated 50 mM Tris/HCl pH 8.0, 25°C.

Data set [2] has as its target T1, BVMOAf1 (PTDH-BVMOAf1). The experiment in a line: UV-Vis absorption of purified holo flavoprotein, FAD release by SDS. Type of data set: binding. The settings on record: FAD 100 μM in lysis buffer; Tris/HCl pH 8.0.
Data set [3] relates to CCSCc1ccccc1. Kind of data set: purified protein. Type of data set: biochemical, Aspergillus fumigatus. Particulars: 100 μM NADPH, air-saturated 50 mM Tris/HCl pH 8.0, 25°C.
Setting [4] is: 100 μM NADPH, read-out: K M (μ M ).

T1 sequence (Q4WAZ0 1-538): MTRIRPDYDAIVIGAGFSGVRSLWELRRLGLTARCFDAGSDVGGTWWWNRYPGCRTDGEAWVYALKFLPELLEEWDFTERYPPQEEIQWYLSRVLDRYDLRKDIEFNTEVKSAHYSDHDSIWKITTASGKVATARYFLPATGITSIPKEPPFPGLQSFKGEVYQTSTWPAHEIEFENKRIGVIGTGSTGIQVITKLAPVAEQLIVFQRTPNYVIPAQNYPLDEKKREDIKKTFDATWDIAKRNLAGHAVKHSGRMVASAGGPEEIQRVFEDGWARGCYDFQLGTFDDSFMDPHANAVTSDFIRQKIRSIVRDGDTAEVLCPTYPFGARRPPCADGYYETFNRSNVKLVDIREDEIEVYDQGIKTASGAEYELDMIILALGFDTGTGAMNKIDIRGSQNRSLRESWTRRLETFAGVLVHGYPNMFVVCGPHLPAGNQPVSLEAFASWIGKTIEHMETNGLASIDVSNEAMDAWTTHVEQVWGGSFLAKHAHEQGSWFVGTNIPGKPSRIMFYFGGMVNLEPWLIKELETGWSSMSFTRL

With `NC(=O)C1=CN([C@@H]2O[C@H](COP(=O)(O)OP(=O)(O)OC[C@H]3O[C@@H](n4cnc5c(N)ncnc54)[C@H](O)[C@@H]3O)[C@@H](O)[C@H]2O)C=CC1`, the Km in data set [1] (setting [4]) stood at 118.8 ± 0.1 µM.
Consider `Cc1cc2nc3c(=O)[nH]c(=O)nc-3n(C[C@H](O)[C@H](O)[C@H](O)COP(=O)(O)OP(=O)(O)OC[C@H]3O[C@@H](n4cnc5c(N)ncnc54)[C@H](O)[C@@H]3O)c2cc1C` [FAD], for which the “UV-Vis absorption of purified holo flavoprotein, FAD release by SDS” value in data set [2] is “yellow fractions containing FAD-bound protein”.
As to `NC(=O)C1=CN([C@@H]2O[C@H](COP(=O)(O)OP(=O)(O)OC[C@H]3O[C@@H](n4cnc5c(N)ncnc54)[C@H](OP(=O)(O)O)[C@@H]3O)[C@@H](O)[C@H]2O)C=CC1` [NADPH], the Km in data set [1] (rac-bicyclo[3.2.0]hept-2-en-6-one 2.0 mM (typical mixture)) is below 5 µM.
On to `NC(=O)C1=CN([C@@H]2O[C@H](COP(=O)(O)OP(=O)(O)OC[C@H]3O[C@@H](n4cnc5c(N)ncnc54)[C@H](OP(=O)(O)O)[C@@H]3O)[C@@H](O)[C@H]2O)C=CC1` [[drawing 5]], for which the Km in data set [1] (setting [4]) amounted to 179.8 ± 0.1 µM.
For the compound “BVMOAf1 (PTDH-BVMOAf1) (Aspergillus fumigatus Af293)”, in data set [3], the Km is 23.5 ± 0.1 µM, the kcat (commonly the maximal rate divided by the concentration of active sites) was determined as 0.47 ± 0.04 s⁻¹ and the kcat/Km (commonly the turnover number divided by the Michaelis constant) was determined as 20000 M⁻¹ s⁻¹.
